“Also recorded” adds a separate entry of the source. Read-outs that look alike come from different tables or passages of the source.
Assays:
Hek-293 cells [1] = experiment: MTT assay, normal Hek-293; format: cell-based, human; conditions: MTT, 72 h; normal cells; mean ± SD; read-out: IC50 Hek-293
Method: (§1) The five employed cell lines were purchased from American Type Culture Collection (ATCC, Manassas, VA, USA) and maintained as already reported. […] SkBr3 cells were maintained in DMEM high glucose, supplemented with 10% FBS and 100 μg/mL penicillin/streptomycin.
(§2) MTT assays [Sigma Aldrich (St.Louis, MO, USA)] were used in order to determine the in vitro anticancer activities of all the target compounds, as already reported.The compounds were tested at different concentrations (0.1-1-10-20-40 µM) for 72 h. Results are represented as percent (%) of basal and the IC50 values were calculated using GraphPad Prism 9 (GraphPad Software, La Jolla, CA, USA).

[2] = test system: caspases 3/7, 8, and 9 in MCF-7 cells; experiment: Caspase-Glo assay, MCF-7; format: cell-based, human; conditions: IC50 value, 24 h; vs vehicle
Method: The activities of caspases 3/7, 8, and 9 were measured by using the Caspase-Glo Assay according to the manufacturer’s guidelines (Caspase-Glo 3/7, 8, and 9 Assay Systems, Promega Corporation, Madison, WI, USA), as already described. The luminescence was detected in a plate-reading luminometer (Synergy H1 Hybrid Reader, BioTek) for 30 min to 3 h (λex/em = 490/570 nm). Results were reported as signal-to-noise ratio (background was determined from the culture medium without cells). The experiments were performed in triplicate.

MDA-MB-231 cells [3] = experiment: MTT assay, MDA-MB-231; format: cell-based, human; conditions: MTT, 72 h; mean ± SD; read-out: IC50 MDA-MB-231
Method: (§3) The five employed cell lines were purchased from American Type Culture Collection (ATCC, Manassas, VA, USA) and maintained as already reported. MCF-7, MDA-MB-231, MCF-10A and Hek-293 were cultured, as indicated by Iacopetta et al.. SkBr3 cells were maintained in DMEM high glucose, supplemented with 10% FBS and 100 μg/mL penicillin/streptomycin.
as §2

vimentin in MCF-7 cells = experiment: Vimentin expression (immunofluorescence), MCF-7; format: cell-based, human; conditions: fluorescence quantification; IC50 value, 24 h
Method: (§4) The MitoTracker Deep Red FM probe (MitoTracker Mitochondrion-Selective Probes, Invitrogen European Headquarters, Paisley, PA4 9RF, UK) was used for mitochondrial staining, as previously described. For immunofluorescence analysis, the cells were seeded and further processed, as reported by Iacopetta et al.. The primary antibodies used were: rabbit anti-β-Actin and vimentin (Santa Cruz Biotechnology, Dallas, TX, USA), mouse anti cytochrome c and NF-κB p65 (Abcam, Cambridge, UK), diluted 1:100 in bovine serum albumin (BSA) 2% overnight at 4 °C. The secondary antibodies were: Alexa Fluor® 488 conjugate goat-anti-rabbit and Alexa Fluor® 568 conjugate goat-anti-mouse (Thermo Fisher Scientific, MA, USA), diluted 1:500 and incubated for 2h at 37 °C. DAPI 0.2 μg/mL (Sigma Aldrich, Milan, Italy) was used for nuclei staining. […] All the images were acquired and processed using the LAS-X software.
Protein lysates underwent the SDS-PAGE process, as already defined. Then lysates were resolved on a 7.5% SDS polyacrylamide gel, transferred to a nitrocellulose membrane, and probed with antibodies against vimentin and GAPDH (Santa Cruz Biotechnology, Dallas, TX, USA). […] The images are representative of three independent experiments.

MCF-10A cells = experiment: MTT assay, normal MCF-10A; format: cell-based, human; conditions: MTT; for IC50: 72 h, normal cells, mean ± SD, read-out: IC50 MCF-10A
Method: as §1
[…] Results are represented as percent (%) of basal and the IC50 values were calculated using GraphPad Prism 9 (GraphPad Software, La Jolla, CA, USA).

β-actin in MCF-7 cells = experiment: Actin immunofluorescence, MCF-7; format: cell-based, human; conditions: 24 h; compound 6 at its IC50 value, LA 0.1 µM
Method: as §4

[4] = test system: cytochrome c in MCF-7 cells; experiment: Mitochondria staining and cytochrome c detection, MCF-7; format: cell-based, human; conditions: IC50 value, 24 h
Method: as §4

MCF-7 cells = experiment: MTT assay, MCF-7; format: cell-based, human; conditions: MTT, 72 h; mean ± SD; read-out: IC50 MCF-7
Method: as §3, §2

[5] = target: T1, human topoisomerase II (hTopo II) (Homo sapiens, UniProt P11388); experiment: hTopo II decatenation assay; format: biochemical; conditions: 1 μM; kDNA, agarose gel
T1 construct: purchased TopoGEN, Port Orange, FL
T1 sequence (P11388 whole entry): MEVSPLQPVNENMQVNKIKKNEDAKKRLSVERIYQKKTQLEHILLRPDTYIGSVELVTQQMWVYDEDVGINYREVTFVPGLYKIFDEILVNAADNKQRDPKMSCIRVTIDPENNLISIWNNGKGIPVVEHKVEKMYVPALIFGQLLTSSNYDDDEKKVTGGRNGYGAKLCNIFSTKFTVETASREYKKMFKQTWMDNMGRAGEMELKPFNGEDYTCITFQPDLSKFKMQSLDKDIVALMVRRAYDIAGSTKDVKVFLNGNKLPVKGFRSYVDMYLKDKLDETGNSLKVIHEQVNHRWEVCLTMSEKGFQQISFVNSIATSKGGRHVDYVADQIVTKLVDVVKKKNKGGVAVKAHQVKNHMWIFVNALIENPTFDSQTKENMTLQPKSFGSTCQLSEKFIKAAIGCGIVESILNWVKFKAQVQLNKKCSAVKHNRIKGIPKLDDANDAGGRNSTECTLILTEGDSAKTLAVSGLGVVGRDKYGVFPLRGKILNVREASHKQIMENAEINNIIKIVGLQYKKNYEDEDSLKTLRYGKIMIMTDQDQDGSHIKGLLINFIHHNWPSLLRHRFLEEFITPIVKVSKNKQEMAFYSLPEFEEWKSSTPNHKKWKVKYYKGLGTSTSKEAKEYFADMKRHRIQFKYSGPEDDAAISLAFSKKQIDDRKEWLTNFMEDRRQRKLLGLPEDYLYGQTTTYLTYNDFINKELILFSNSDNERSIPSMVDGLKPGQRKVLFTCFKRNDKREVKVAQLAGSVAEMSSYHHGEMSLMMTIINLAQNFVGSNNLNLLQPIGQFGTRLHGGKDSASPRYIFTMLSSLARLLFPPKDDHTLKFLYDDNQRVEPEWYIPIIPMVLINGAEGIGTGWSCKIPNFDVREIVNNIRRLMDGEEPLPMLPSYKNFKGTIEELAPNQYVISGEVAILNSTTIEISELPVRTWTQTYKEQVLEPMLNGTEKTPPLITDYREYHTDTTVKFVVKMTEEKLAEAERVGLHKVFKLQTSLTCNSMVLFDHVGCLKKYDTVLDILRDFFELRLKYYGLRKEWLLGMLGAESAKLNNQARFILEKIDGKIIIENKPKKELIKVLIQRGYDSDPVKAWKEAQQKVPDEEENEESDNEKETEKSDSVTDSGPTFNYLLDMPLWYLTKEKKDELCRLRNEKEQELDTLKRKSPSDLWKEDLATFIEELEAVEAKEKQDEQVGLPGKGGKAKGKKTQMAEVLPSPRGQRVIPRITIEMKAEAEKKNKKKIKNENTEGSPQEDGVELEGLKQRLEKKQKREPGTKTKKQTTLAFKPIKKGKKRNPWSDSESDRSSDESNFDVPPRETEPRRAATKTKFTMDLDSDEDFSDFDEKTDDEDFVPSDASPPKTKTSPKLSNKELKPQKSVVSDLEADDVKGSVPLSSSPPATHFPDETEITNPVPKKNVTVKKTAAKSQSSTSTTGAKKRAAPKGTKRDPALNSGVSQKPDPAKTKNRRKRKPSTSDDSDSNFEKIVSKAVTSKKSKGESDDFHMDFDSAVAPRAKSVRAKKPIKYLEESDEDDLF

NF-κB in MCF-7 cells = experiment: NF-κB immunofluorescence, MCF-7; format: cell-based, human; conditions: IC50 value, 24 h
Method: as §4

[6] = target: T2, human topoisomerase I (hTopo I) (Homo sapiens, UniProt P11387); experiment: hTopo I relaxation assay; format: biochemical; conditions: 1 μM; supercoiled pHOT1, agarose gel
T2 construct: purchased TopoGEN, Port Orange, FL, USA
T2 sequence (P11387 whole entry): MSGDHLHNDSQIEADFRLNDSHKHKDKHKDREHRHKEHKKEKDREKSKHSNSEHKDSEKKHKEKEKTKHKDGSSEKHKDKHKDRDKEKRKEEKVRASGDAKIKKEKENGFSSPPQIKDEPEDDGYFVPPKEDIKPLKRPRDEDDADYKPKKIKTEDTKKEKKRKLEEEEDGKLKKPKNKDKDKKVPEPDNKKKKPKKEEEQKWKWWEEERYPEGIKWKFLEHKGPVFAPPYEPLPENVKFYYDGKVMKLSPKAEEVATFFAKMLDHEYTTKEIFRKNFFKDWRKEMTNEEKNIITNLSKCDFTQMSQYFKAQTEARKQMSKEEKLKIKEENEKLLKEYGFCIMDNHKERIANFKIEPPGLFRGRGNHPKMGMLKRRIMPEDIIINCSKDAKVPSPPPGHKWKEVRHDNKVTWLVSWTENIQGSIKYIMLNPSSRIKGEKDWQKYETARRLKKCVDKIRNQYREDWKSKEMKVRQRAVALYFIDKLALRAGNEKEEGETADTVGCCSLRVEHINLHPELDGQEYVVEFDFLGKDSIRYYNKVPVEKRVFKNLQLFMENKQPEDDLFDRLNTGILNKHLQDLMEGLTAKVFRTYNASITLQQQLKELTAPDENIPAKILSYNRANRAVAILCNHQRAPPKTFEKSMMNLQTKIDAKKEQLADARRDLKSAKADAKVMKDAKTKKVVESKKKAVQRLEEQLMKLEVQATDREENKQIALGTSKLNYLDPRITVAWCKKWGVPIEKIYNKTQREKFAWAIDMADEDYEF

β-actin in MCF-10A cells = experiment: Actin immunofluorescence, MCF-10A; format: cell-based, human
Method: as §4
E: Figure S1. Actin immunofluorescence studies in MCF-10A cells […]
Figure S1. Actin immunofluorescence studies. M CF-10A cells were treat ed with compounds 1 and […]
treatment, the cells were methanol fixed, incubated with primary and secondary antibodies, stained with DAPI and observed and imaged under the inverted fluorescence microscope at 20x […]
A: nuclear stain with DAPI (λex/λem = 350/460 nm); Panels B: β-actin ([…]); Panels C: show a merge. R epresentative fields are shown.

SkBr3 cells = experiment: MTT assay, SkBr3; format: cell-based, human; conditions: MTT, 72 h; mean ± SD; read-out: IC50 SkBr3
Method: as §3, §2

Hek-293 cells [7] = experiment: MTT assay, normal Hek-293; format: cell-based, human; conditions: up to the concentration of 200 μM
MDA-MB-231 cells [8] = experiment: TUNEL assay, MDA-MB-231; format: cell-based, human; conditions: IC50, 24 h
Excerpt: Images are representative of three independent experiments.

[9] = test system: NF-κB in MDA-MB-231 cells; experiment: NF-κB immunofluorescence, MDA-MB-231; format: cell-based, human; conditions: IC50 value, 24 h
Method: as §4

[10] = test system: cytochrome c in MDA-MB-231 cells; experiment: Mitochondria staining and cytochrome c detection, MDA-MB-231; format: cell-based, human; conditions: IC50 value, 24 h
Method: as §4

[11] = test system: β-actin in MDA-MB-231 cells; experiment: Actin immunofluorescence, MDA-MB-231; format: cell-based, human; conditions: 24 h; compound 1 at its IC50 value, LA 0.1 µM
Method: as §4

CC(=O)[O-].Cn1c(Cl)c(Cl)n(CC(O)c2ccccc2)[c]1=[Au+]=[c]1n(C)c(Cl)c(Cl)n1CC(O)c1ccccc1 (centres unmarked) [Compound 6, Bis [4,5-dichloro-(N-methyl, N’(2-hydroxy-2-phenyl-ethyl)imidazole-2-ylidine]gold(I)] acetate]
IC50 (Hek-293 cells [1]): 32.5 ± 1.1 µM
caspase-3 and -7 activity, MCF-7 [2]: clear increase
caspase-8 activity, MCF-7 [2]: significant rise
caspase-9 activity, MCF-7 [2]: no increase
IC50 (MDA-MB-231 cells [3]): 16.8 ± 1.2 µM
reduction of vimentin expression with respect to the control, MCF-7 (vimentin in MCF-7 cells): two-fold
IC50 (MCF-10A cells): 24.4 ± 0.9 µM
actin organization in MCF-7 cells (β-actin in MCF-7 cells): actin bundles appeared thicker and dramatically packed into the cytoplasm
cytochrome c localization, MCF-7 [4]: cytochrome c is localized within mitochondria
IC50 (MCF-7 cells): 1.2 ± 0.3 µM
inhibition of hTopo II decatenation activity [5]: totally inhibited
NF-κB translocation, MCF-7 (NF-κB in MCF-7 cells): reduced the translocation of NF-κB from the cytoplasm to the nucleus
inhibition of hTopo I supercoil relaxing activity [6]: totally inhibit
actin organization in MCF-10A cells (β-actin in MCF-10A cells): normal
IC50 (SkBr3 cells): 2.3 ± 0.9 µM

Cn1ccn(CC([O-])c2ccccc2)[c]1=[Au+]=[c]1n(C)ccn1CC([O-])c1ccccc1.[Cl-].[Na+].[Na+] (centres unmarked) [Compound 1]
IC50 (Hek-293 cells [1]): > 200 µM
IC50 (MDA-MB-231 cells [3]): 15.8 ± 0.7 µM
IC50 (MCF-10A cells): > 200 µM
cytotoxicity against the normal MCF-10A cells (in words) (MCF-10A cells; up to the concentration of 200 μM): complete lack of cytotoxicity; also recorded: completely lack of cytotoxicity
cytotoxicity against the normal Hek-293 cells (in words) (Hek-293 cells [7]): complete lack of cytotoxicity
apoptosis (TUNEL), MDA-MB-231 (MDA-MB-231 cells [8]): induced apoptosis
IC50 (MCF-7 cells): 29.9 ± 1.1 µM
NF-κB translocation, MDA-MB-231 [9]: reduced the translocation of NF-κB from the cytoplasm to the nucleus
cytochrome c localization, MDA-MB-231 [10]: cytochrome c is localized within mitochondria
inhibition of hTopo II decatenation activity [5]: totally inhibited
actin organization in MDA-MB-231 cells [11]: altered actin bundles organization
inhibition of hTopo I supercoil relaxing activity [6]: totally inhibit
actin organization in MCF-10A cells (β-actin in MCF-10A cells; 24 h, compounds at their IC50 value, LA 0.1 μM): normal
IC50 (SkBr3 cells): 83 ± 1 µM
